# Source: patent publication US6946469B2, “Cyanamide, alkoxyamino, and urea derivatives of 4,4-disubstituted-3,4-dihydro-2(1H)-quinazolinones as HIV reverse transcriptase inhibitors” (Bristol-Myers Squibb Pharma Company, priority 2001, dated 2005)
# Test system: HIV-1 (RF)
# Assay: HIV RNA assay: microplate based compound evaluation in HIV-1 infected MT-2 cells
# Format: cell-based
# Conditions: Human immunodeficiency virus 1, MT2, 72 h; HIV-1 (RF) infected MT-2 cells, 3 days of culture; virus dilution selected to give this value (inoculum standardisation); read-out: IC90 value (concentration of compound required to reduce the HIV RNA level by 90%)
# Protocol: MT-2 and MT-4 cells were maintained in RPMI 1640 supplemented with 5% fetal calf serum (FCS) for MT-2 cells or 10% FCS for MT-4 cells, 2 mM L-glutamine and 50 μg/mL gentamycin, all from Gibco. HIV-1 RF was propagated in MT-4 cells in the same medium. Virus stocks were prepared approximately 10 days after acute infection of MT-4 cells and stored as aliquots at −70° C. Infectious titers of HIV-1 (RF) stocks were 1-3×10^7 PFU (plaque forming units)/mL as measured by plaque assay on MT-2 cells (see below). Each aliquot of virus stock used for infection was thawed only once.
# For evaluation of antiviral efficacy, cells to be infected were subcultured one day prior to infection. […]
# Cell lysates or purified RNA in 3 M or 5 M GED were mixed with 5 M GED and capture probe to a final guanidinium isothiocyanate concentration of 3 M and a final biotin oligonucleotide concentration of 30 nM. […] Immobilized alkaline phosphatase activity was detected by addition of 100 μL of 0.2 mM 4-methylumbelliferyl phosphate (MUBP, JBL Scientific) in buffer δ(2.5 M diethanolamine pH 8.9 (JBL Scientific), 10 mM MgCl2, 5 mM zinc acetate dihydrate and 5 mM N-hydroxyethyl-ethylene-diamine-triacetic acid). […] Fluorescence at […] was measured using a microplate fluorometer (Dynateck) exciting at […]. […]
compound,measurement,value
"Nc1ccn([C@H]2CC[C@@H](CO)O2)c(=O)n1 [ddC, 2′,3′-dideoxycytidine]",IC90,0.2 µg/mL
